The subject of this assay is primary patient FLT3-ITD+ AML circulating blasts. Description: Colony-forming assay, primary patient FLT3-ITD+ AML blasts. Type of assay: cell-based, human. The source says: Primary AML blood samples and/or marrow aspirates were obtained on an IRB-approved protocol at the University of California, San Francisco. Informed consent was obtained in accordance with the Declaration of Helsinki. Mononuclear cells were purified by density centrifugation (Ficoll–Paque Plus, GE Healthsciences) before cryopreservation in 10% (vol/vol) DMSO or FCS (primary ITD and D835-mutant assays, Figure 3A–C) or immediate use in assays (Normal BM and SPB, Figure 3D–F). Normal BM and stimulated peripheral blood (SPB) samples were collected from donors at the UCSF oncology/hematology division. Cells were then suspended in MethoCult methylcellulose (Stem Cell Technologies, product no. H4435 Enriched, Canada) in 15-ml Falcon tubes, vigorously vortexed, bubbles settled over 10 min. Triplicates then plated via blunt-nosed syringe (1.1 ml each) into 3-cm dishes, avoiding bubble generation, and each dish placed in a larger 10-cm dish with water trough in an incubator (37°C, 5% CO2) for 13–14 days. Colonies were counted individually using traditional microscopy. CFU and BFU types reported separately (CFU-GEMM colonies counted as one of each).

One may read the inhibition as the change of the read-out against control, counted positive when it falls. As to `CC1NC(=O)c2c1c1c3ccccc3n(CCCN)c1c1[nH]c3ccccc3c21` (centres unmarked) [Star 27], the inhibition at 1 µM (Homo sapiens, at 1000 nM, read-out: inhibition of colony formation, FLT3-ITD+ blasts) was > 80%. Further, where the note is “at 1,000 nM, ca. 1,200 CFUs in DMSO plates”, the “raw colony numbers, FLT3-ITD+ blasts” value is “ca. 20”.

The values above are taken from paper PMC4307180, “Overcoming myelosuppression due to synthetic lethal toxicity for FLT3-targeted acute myeloid leukemia therapy” (eLife, 2014).
